Measured values published in ChEMBL document CHEMBL1909046, “DrugMatrix in vitro pharmacology data”.

What was measured:
[1] = target: Beta-2 adrenergic receptor (Homo sapiens, UniProt P07550); test: DRUGMATRIX: Adrenergic beta2 radioligand binding (ligand: [3H] CGP-12177); assay type: cell membranes, Membrane; settings: cho; Not Active = under 50% inhibition at 10 µM
Progesterone receptor = target: T1, Progesterone receptor (Bos taurus, UniProt Q690N0); test: DRUGMATRIX: Progesterone radioligand binding (ligand: [3H] R-5020); assay type: tissue-based, Uterus; settings: Not Active = under 50% inhibition at 10 µM
T1 sequence (Q690N0 whole entry): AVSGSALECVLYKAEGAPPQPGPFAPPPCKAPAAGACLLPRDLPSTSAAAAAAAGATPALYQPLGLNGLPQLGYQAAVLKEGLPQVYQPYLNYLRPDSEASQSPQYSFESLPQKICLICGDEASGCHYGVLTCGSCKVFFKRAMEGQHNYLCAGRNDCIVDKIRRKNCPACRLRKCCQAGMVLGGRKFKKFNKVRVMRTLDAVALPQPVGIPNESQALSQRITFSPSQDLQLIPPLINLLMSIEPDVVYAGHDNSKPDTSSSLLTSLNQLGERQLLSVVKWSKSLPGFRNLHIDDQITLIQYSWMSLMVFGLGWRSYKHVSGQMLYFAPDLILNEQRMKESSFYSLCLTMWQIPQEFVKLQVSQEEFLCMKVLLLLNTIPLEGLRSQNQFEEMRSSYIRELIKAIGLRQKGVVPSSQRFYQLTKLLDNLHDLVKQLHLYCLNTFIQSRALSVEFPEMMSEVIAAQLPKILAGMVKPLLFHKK

[2] = target: Prostaglandin G/H synthase 1 (Homo sapiens, UniProt P23219); test: biochemical; assay type: tissue-based, Platelet; settings: platelet;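 further: inhibition of COX-1 enzyme activity, with arachidonic acid supplied as substrate; in other assays of this panel Not Active means under 50% inhibition at 10 µM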
Adenosine receptor A2a = Adenosine receptor A2a (Homo sapiens, UniProt P29274); test: DRUGMATRIX: Adenosine A2A radioligand binding (ligand: […]); assay type: cell membranes, HEK293, Membrane; settings: hek293; Not Active = under 50% inhibition at 10 µM
[3] = DRUGMATRIX: Phosphodiesterase PDE4 enzyme inhibition (substrate: [3H]cAMP + cAMP); settings: u-937; Not Active = under 50% inhibition at 10 µM
[4] = DRUGMATRIX: Potassium Channel [KATP] radioligand binding (ligand: [3H] Glyburide); assay type: cell membranes, Membrane; settings: hit-t15; Not Active = under 50% inhibition at 10 µM
[5] = target: Mitogen-activated protein kinase 3 (Homo sapiens, UniProt P27361); test: DRUGMATRIX: Protein Serine/Threonine Kinase, ERK1 enzyme inhibition (substrate: Myelin Basic Protein); design: species or system Escherichia coli; settings: Not Active = under 50% inhibition at 10 µM
Glycine receptor = Glycine receptor (Rattus norvegicus, UniProt P22771+P24524+P07727+P20781); assay type: cell membranes, Wistar, Spinal cord, Membrane; further: in other assays of this panel Not Active means under 50% inhibition at 10 µM
Leukotriene C4 synthase = target: T2, Leukotriene C4 synthase (Cavia porcellus, UniProt A6XA80); assay type: tissue-based, Lung;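 further: enzyme inhibition assay of leukotriene C4 synthase, using LTA4 as the substrate; in other assays of this panel Not Active means under 50% inhibition at 10 µM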
T2 sequence (A6XA80 whole entry): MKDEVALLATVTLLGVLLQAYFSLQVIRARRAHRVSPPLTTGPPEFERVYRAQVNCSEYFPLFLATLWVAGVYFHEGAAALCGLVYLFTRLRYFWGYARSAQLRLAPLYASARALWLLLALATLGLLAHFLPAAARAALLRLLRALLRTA

[6] = target: T3, Muscarinic acetylcholine receptor M4 (Homo sapiens, UniProt P08173); assay type: cell membranes, CHO-K1, Membrane; further: in other assays of this panel Not Active means under 50% inhibition at 10 µM
T3 sequence (P08173 whole entry): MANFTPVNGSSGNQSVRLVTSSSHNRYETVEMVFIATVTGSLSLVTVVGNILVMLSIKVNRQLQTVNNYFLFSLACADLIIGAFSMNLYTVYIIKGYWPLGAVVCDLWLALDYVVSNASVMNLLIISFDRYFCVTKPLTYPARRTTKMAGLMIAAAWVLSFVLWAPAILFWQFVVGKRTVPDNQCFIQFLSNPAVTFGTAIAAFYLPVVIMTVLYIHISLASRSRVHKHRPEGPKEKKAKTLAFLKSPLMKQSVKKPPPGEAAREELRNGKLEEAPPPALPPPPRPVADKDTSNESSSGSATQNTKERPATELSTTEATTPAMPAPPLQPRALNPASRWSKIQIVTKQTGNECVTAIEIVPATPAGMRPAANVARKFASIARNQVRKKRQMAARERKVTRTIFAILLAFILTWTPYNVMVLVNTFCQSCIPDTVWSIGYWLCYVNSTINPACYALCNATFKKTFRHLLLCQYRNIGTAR

[7] = target: T4, Alpha-2C adrenergic receptor (Homo sapiens, UniProt P18825); test: DRUGMATRIX: Adrenergic Alpha-2C radioligand binding (ligand: [3H] MK-912); assay type: cell membranes, Sf9, Membrane
T4 sequence (P18825 whole entry): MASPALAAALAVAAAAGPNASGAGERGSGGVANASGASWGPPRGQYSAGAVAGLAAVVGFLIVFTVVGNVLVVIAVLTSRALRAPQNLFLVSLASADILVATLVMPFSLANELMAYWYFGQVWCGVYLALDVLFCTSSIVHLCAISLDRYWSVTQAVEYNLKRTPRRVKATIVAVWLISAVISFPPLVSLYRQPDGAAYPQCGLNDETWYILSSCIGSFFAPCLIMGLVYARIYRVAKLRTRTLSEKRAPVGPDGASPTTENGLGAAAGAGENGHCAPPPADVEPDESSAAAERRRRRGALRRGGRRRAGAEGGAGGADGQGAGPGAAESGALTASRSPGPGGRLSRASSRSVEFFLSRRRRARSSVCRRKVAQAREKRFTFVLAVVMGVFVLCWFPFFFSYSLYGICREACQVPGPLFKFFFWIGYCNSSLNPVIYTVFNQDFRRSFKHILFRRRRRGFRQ

Chain of Adenosine receptor A2a (P29274 whole entry): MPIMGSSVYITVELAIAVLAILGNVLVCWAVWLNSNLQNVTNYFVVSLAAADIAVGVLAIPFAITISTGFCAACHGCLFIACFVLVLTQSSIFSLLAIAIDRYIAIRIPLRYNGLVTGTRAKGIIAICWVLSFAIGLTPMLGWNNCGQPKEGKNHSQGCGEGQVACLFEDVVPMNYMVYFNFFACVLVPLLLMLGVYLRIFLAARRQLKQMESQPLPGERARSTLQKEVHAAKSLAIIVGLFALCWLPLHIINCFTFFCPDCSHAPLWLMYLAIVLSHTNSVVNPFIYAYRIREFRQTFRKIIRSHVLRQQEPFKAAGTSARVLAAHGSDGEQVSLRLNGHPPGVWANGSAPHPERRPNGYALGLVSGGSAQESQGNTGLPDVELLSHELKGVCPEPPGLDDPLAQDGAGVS
Chain of Prostaglandin G/H synthase 1 (P23219 whole entry): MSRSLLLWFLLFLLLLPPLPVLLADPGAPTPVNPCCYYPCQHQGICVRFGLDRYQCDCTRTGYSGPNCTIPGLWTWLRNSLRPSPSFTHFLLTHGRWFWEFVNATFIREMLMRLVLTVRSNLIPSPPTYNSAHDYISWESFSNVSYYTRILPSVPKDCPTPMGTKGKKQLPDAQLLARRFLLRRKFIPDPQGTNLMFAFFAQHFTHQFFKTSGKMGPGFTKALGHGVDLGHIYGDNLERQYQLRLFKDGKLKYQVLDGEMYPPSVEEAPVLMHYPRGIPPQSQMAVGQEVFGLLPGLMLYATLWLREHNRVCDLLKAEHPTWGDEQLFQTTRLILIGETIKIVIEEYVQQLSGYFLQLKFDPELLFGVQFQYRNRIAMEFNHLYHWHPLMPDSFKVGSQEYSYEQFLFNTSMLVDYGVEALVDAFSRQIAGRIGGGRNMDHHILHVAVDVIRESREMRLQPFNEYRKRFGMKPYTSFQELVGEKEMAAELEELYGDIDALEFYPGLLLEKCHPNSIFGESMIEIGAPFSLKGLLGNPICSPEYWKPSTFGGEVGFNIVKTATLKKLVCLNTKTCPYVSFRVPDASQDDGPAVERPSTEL
Chain of Beta-2 adrenergic receptor (P07550 whole entry): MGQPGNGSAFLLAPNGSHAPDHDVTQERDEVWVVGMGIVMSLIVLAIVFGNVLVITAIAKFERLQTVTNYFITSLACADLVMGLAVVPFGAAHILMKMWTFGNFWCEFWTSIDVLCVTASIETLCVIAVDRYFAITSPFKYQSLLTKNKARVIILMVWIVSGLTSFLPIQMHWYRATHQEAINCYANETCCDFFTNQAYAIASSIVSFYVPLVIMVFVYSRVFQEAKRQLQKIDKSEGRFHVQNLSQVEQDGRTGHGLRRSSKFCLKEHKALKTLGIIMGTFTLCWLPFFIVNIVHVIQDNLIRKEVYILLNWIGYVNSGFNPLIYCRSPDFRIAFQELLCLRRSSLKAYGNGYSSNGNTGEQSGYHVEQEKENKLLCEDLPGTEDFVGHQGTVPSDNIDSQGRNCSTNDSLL
Chain of Mitogen-activated protein kinase 3 (P27361 whole entry): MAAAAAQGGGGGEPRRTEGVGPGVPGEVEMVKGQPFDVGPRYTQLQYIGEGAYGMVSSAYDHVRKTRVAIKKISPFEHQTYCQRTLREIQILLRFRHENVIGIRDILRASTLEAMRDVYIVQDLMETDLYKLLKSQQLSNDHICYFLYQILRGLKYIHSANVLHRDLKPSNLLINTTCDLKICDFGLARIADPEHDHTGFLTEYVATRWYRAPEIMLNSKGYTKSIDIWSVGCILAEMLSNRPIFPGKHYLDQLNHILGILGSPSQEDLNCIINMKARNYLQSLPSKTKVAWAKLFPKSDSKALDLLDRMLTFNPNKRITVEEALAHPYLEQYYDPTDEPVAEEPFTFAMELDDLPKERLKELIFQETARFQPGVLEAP

SMILES	IC50 [1]	IC50 (Progesterone receptor)	IC50 [2]	IC50 (Adenosine receptor A2a)	IC50 [3]	Ki [3]	IC50 [4]	Ki [4]	IC50 [5]	IC50 (Glycine receptor)	IC50 (Leukotriene C4 synthase)	IC50 ([6]; cho-k1)	IC50 ([7]; sf9)	IC50 ([6]; read-out: IC50) [µM]	Ki ([6]; read-out: Ki) [µM]	IC50 ([7]; read-out: IC50) [µM]	Ki ([7]; read-out: Ki) [µM]	Ki (Progesterone receptor; read-out: Ki) [µM]
CC1=C(CC(=O)O)c2cc(F)ccc2/C1=C\c1ccc([S+](C)[O-])cc1 (stereo not drawn)	Not Active	Not Active	Not Active	Not Active	Not Active	Not Active	Not Active	Not Active	Not Active	Not Active	Not Active	Not Active	Not Active					
N[C@H](CSC(=S)NCc1ccccc1)C(=O)O	Not Active	Not Active	Not Active	Not Active	Not Active	Not Active	Not Active	Not Active	Not Active	Not Active	Not Active	Not Active	Not Active					
CC(=O)N[C@@H]1[C@H](Oc2c3cc4cc2Oc2ccc(cc2Cl)[C@@H](O[C@@H]2O[C@@H](CO)[C@@H](O)[C@H](O)[C@@H]2NC(C)=O)[C@@H]2NC(=O)[C@H](NC(=O)[C@@H]4NC(=O)[C@H]4NC(=O)[C@@H](Cc5ccc(c(Cl)c5)O3)NC(=O)[C@H](N)c3ccc(O)c(c3)Oc3cc(O)cc4c3)c3ccc(O)c(c3)-c3c(O[C@H]4O[C@H](CO)[C@@H](O)[C@@H](O)[C@@H]4O)cc(O)cc3[C@@H](C(=O)O)NC2=O)O[C@@H](CO)[C@@H](O)[C@@H]1O	Not Active	Not Active	Not Active	Not Active	Not Active	Not Active	Not Active	Not Active	Not Active	Not Active	Not Active	Not Active	Not Active					
Clc1ccc2c(c1)C(N1CCNCC1)=Nc1ccccc1O2 [AMOXAPINE]	Not Active	Not Active	Not Active	Not Active					Not Active	Not Active	Not Active							
COc1cc2c(c(OC)c1OC)-c1ccc(OC)c(=O)cc1[C@@H](NC(C)=O)CC2 [COLCHICINE]	Not Active	Not Active	Not Active	Not Active					Not Active	Not Active	Not Active	Not Active	Not Active					
CN1CCC(=C2c3ccccc3C=Cc3ccccc32)CC1 [CYPROHEPTADINE]	Not Active	Not Active	Not Active	Not Active					Not Active	Not Active	Not Active			0.016	0.00219	1.27	0.185	
CC/C(=C(/CC)c1ccc(O)cc1)c1ccc(O)cc1 [DIETHYLSTILBESTROL]	Not Active								Not Active	Not Active	Not Active	Not Active						0.611
CC(=O)N1CCN(c2ccc(OCC3COC(Cn4ccnc4)(c4ccc(Cl)cc4Cl)O3)cc2)CC1 (stereo not drawn) [KETOCONAZOLE]	Not Active	Not Active	Not Active	Not Active	Not Active	Not Active			Not Active	Not Active	Not Active	Not Active	Not Active					
C=CCN1CC[C@]23c4c5ccc(O)c4O[C@H]2C(=O)CC[C@@]3(O)[C@H]1C5 [NALOXONE]	Not Active	Not Active	Not Active	Not Active					Not Active	Not Active	Not Active	Not Active	Not Active					
COCCOC(=O)C1=C(C)NC(C)=C(C(=O)OC(C)C)C1c1cccc([N+](=O)[O-])c1 (stereo not drawn) [NIMODIPINE]	Not Active	Not Active	Not Active	Not Active	Not Active	Not Active	Not Active	Not Active	Not Active	Not Active	Not Active	Not Active	Not Active					
CC(C)NCC(O)COc1cccc2ccccc12 (stereo not drawn) [PROPRANOLOL]		Not Active	Not Active	Not Active					Not Active	Not Active	Not Active	Not Active	Not Active					
COCCCOc1ccnc(C[S+]([O-])c2nc3ccccc3[nH]2)c1C (stereo not drawn) [RABEPRAZOLE]	Not Active	Not Active	Not Active	Not Active	Not Active	Not Active	Not Active	Not Active	Not Active	Not Active	Not Active	Not Active	Not Active					
O=C(c1ccc(OCCN2CCCCC2)cc1)c1c(-c2ccc(O)cc2)sc2cc(O)ccc12 [RALOXIFENE]	Not Active	Not Active	Not Active		Not Active	Not Active	Not Active	Not Active	Not Active	Not Active	Not Active	Not Active						
CNC(=C[N+](=O)[O-])NCCSCc1ccc(CN(C)C)o1 [RANITIDINE]	Not Active	Not Active	Not Active	Not Active	Not Active	Not Active	Not Active	Not Active	Not Active	Not Active	Not Active	Not Active	Not Active					
CO[C@H]1/C=C/O[C@@]2(C)Oc3c(C)c(O)c4c(c3C2=O)C2=NC3(CCN(CC(C)C)CC3)NC2=C(NC(=O)/C(C)=C\C=C\[C@H](C)[C@H](O)[C@@H](C)[C@@H](O)[C@@H](C)[C@H](OC(C)=O)[C@@H]1C)C4=O [RIFABUTIN]	Not Active	Not Active	Not Active	Not Active	Not Active	Not Active	Not Active	Not Active	Not Active	Not Active	Not Active	Not Active	Not Active					
CC(C)(C)c1ccc(C(O)CCCN2CCC(C(O)(c3ccccc3)c3ccccc3)CC2)cc1 (stereo not drawn) [TERFENADINE]	Not Active	Not Active	Not Active	Not Active	Not Active	Not Active			Not Active	Not Active	Not Active	Not Active						
